Measured values from PMC8903829 (eLife, 2022).

Assays:
[1] = Bioanalytical assessment of plasma and brain concentrations after 6 Hz assay; format: in vivo, mouse; conditions: mouse, oral, SCN8A mouse 6HZ
Protocol: (§1) Approximately 0.5 mL of blood was collected from each mouse at the end of the assay via cardiac puncture under deep anesthesia. The blood samples were collected in a syringe and transferred to tubes containing EDTA. Blood was stored at 4 °C until centrifuged within 30 min of collection. Plasma was harvested and placed on dry ice and stored in a freezer set to maintain a temperature of –70°C to –80°C until analysis. Brains were harvested immediately after blood collection and placed on dry ice prior to storage in a freezer set to maintain a temperature of –70°C to –80°C until analysis.
(§2) Extraction of plasma samples was carried out by protein precipitation using acetonitrile. Plasma samples (50 µL) were mixed with 50 µL of internal standard (IS) solution in water followed by addition of 10 µL of concentrated ortho-phosphoric acid and 200 µL of acetonitrile. Samples were vortexed for 30 seconds, centrifuged at 13,000 rpm for 20 min, decanted in to a 96-well plate, and further centrifuged at 4000 rpm for 20 min. The samples were analyzed by UHPLC-ESI-MS/MS as described below.
(§3) Prior to extraction, pre-weighed whole brains were homogenized in 1:1 acetonitrile/water (v/v) (4 mL per mouse brain) using an IKA T18 ULTRA-TURRAX Homogenizer at the setting of 4 for approximately 2 min. The homogenate was centrifuged at 13,000 rpm for 20 min and 50 µL of the supernatant were treated exactly as described above for plasma samples. […]
(§4) Samples were analyzed by UHPLC-ESI MS/MS using a TQ-5500 Sciex triple quadrupole mass spectrometer equipped with a Shimadzu Nexera UHPLC pump and auto-sampler system using an ACE C18 PFP, 2.50 × 50 mm, 1.7 µm particle size column and gradient elution consisting of solvent A (0.1% formic acid in water) and solvent B (0.1% formic acid in acetonitrile) starting at 20% B from 0 min to 0.4 min and then increased to 100% B from 0.4 min to 0.6 min. At 2.0 min, the mobile phase composition was switched back to […] for 1 min. The flow rate used throughout the experiment was […]. […] The UHPLC-ESI MS/MS system was controlled by Analyst 1.6.
(§5) Sample concentrations were determined using a linear calibration function, weighted 1 /X, generated by the regression of analyte to IS peak area ratios in the standard samples to their respective concentrations. Acceptance criteria for the analytical run required that the back calculated values of the standards and the QC samples fell within ±20% of their nominal values, except for the lowest standard or lower limit of quantitation (LLOQ), for which the acceptance criterion was ±25%. At least 6 out of 12 standard points had to show back-calculated values within ±20% of their nominal concentrations for the calibration to be accepted. At least three QC samples, one at each level, had to show back-calculated values within ±20% of their nominal concentrations for the whole sample batch to be valid.

wild-type mice (CF-1) = assay: DC-Maximal electroshock seizure assay (DC-MES); format: in vivo, mouse
Protocol: Phenytoin was formulated in physiologic saline and was administered intraperitoneally (i.p.) using a 25-gauge needle at a dose volume of 10 mL/kg. All compounds were administered 2 hr prior to electrical seizure induction for all seizure models employed in this study.
The maximal electroshock seizure (MES) assay has been extensively used in the search for anticonvulsant substances ([Löscher et al., 1991]; [Piredda et al., 1985]; [White et al., 1995]). The MES assay is sensitive to nonselective NaV inhibitors. It is considered a model for generalized tonic-clonic (GTC) seizures and provides an assessment of seizure spread. Briefly, an electroshock of direct current (DC) was delivered by corneal electrodes (Electro Convulsive Therapy Unit 57,800 from Ugo Basile). The parameters of stimulation were different between mice and rats. In CF1 mice aged 9–12 weeks, a direct current of 50 mA (60 Hz) was delivered for 0.2 s (pulse width of 0.5ms), whereas in Sprague Dawley (SD) rats aged 5–6 weeks, a direct current of 150 mA (60 Hz) was delivered for 0.3 s (pulse width of 0.5ms). Immediately prior to the electroshock, the animals’ eyes were anesthetized with a drop of Alcaine (0.5% proparacaine hydrochloride).
An animal was considered protected in the assay in the absence of a GTC with hindlimb extension and is then scored ‘0’. An animal displaying GTC with hindlimb extension was considered not protected and is then scored ‘1’. The experimenter scoring the seizure behavior was blinded to the treatment.

Sprague Dawley rats = assay: Observation of potential adverse behavior (behavioral signs) in the rat DC-MES studies; format: in vivo; conditions: rat
Protocol: Animals were observed by the scientist(s) responsible for dosing for the first 30 min after dosing for and again at the time of assay (2 hr post dose) for signs of abnormal behavior.

[2] = Bioanalytical assessment of plasma and brain concentrations after mouse DC-MES assay; format: in vivo; conditions: mouse, oral, WT mouse DC-MES acute
Protocol: as §1, §2, §3, §4, §5

[3] = Bioanalytical assessment of plasma and brain concentrations after rat DC-MES assay; format: in vivo; conditions: rat, oral, Rat DC-MES

NC(=O)N1c2ccccc2C=Cc2ccccc21 [carbamazepine, Carbamazepine, reference compound]
concentration at 2 h ([1]; Scn8a N1768D/+, brain, 3 mg/kg, Study15064, 3 mg/kg, read-out: Mean [Brain]): 0.943 µM | concentration at 2 h ([1]; Scn8a N1768D/+, brain, 3 mg/kg, Study16152, 3 mg/kg, read-out: Mean [Brain]): 2.7 µM | concentration at 2 h ([1]; Scn8a N1768D/+, brain, 3 mg/kg, Study16162, 3 mg/kg, read-out: Mean [Brain]): 4.89 µM | concentration at 2 h ([1]; Scn8a N1768D/+, brain, 10 mg/kg, Study15064, 10 mg/kg, read-out: Mean [Brain]): 2.24 µM | concentration at 2 h ([1]; Scn8a N1768D/+, brain, 10 mg/kg, Study16152, 10 mg/kg, read-out: Mean [Brain]): 11.4 µM | concentration at 2 h ([1]; Scn8a N1768D/+, brain, 10 mg/kg, Study16162, 10 mg/kg, read-out: Mean [Brain]): 15.7 µM | concentration at 2 h ([1]; Scn8a N1768D/+, brain, 30 mg/kg, Study16152, 30 mg/kg, read-out: Mean [Brain]): 40.7 µM | concentration at 2 h ([1]; Scn8a N1768D/+, brain, 100 mg/kg, Study16162, 100 mg/kg, read-out: Mean [Brain]): 130 µM | concentration at 2 h ([1]; Scn8a N1768D/+, plasma, 10 mg/kg, Study16162, 10 mg/kg, read-out: Mean [Palsma]): 20.7 µM | concentration at 2 h ([1]; Scn8a N1768D/+, plasma, 100 mg/kg, Study16162, 100 mg/kg, read-out: Mean [Palsma]): 154 µM | concentration at 2 h ([1]; Scn8a^N1768D/+, plasma, 3 mg/kg, Study15064, 3 mg/kg, read-out: Mean [Palsma]): 1.14 µM | concentration at 2 h ([1]; Scn8a^N1768D/+, plasma, 3 mg/kg, Study16152, 3 mg/kg, read-out: Mean [Palsma]): 4.75 µM | concentration at 2 h ([1]; Scn8a^N1768D/+, plasma, 3 mg/kg, Study16162, 3 mg/kg, read-out: Mean [Palsma]): 7.46 µM | concentration at 2 h ([1]; Scn8a^N1768D/+, plasma, 10 mg/kg, Study15064, 10 mg/kg, read-out: Mean [Palsma]): 5.96 µM | concentration at 2 h ([1]; Scn8a^N1768D/+, plasma, 10 mg/kg, Study16152, 10 mg/kg, read-out: Mean [Palsma]): 15.4 µM | concentration at 2 h ([1]; Scn8a^N1768D/+, plasma, 30 mg/kg, Study16152, 30 mg/kg, read-out: Mean [Palsma]): 48.7 µM | WT mouse DC-MES acute Fraction of animals seizing (wild-type mice (CF-1); Study17131, 10 mg/kg): 0.7143 | WT mouse DC-MES acute Fraction of animals seizing (wild-type mice (CF-1); Study17131, 30 mg/kg): 0.4286 | WT mouse DC-MES acute Fraction of animals seizing (wild-type mice (CF-1); Study17131, 100 mg/kg): 0.1429 | WT mouse DC-MES acute Fraction of animals seizing (wild-type mice (CF-1); Study17134, 10 mg/kg): 0.8571 | WT mouse DC-MES acute Fraction of animals seizing (wild-type mice (CF-1); Study17134, 30 mg/kg): 0.4286 | EC50 (wild-type mice (CF-1); WT mouse DC-MES, 2 hr post dose (oral; phenytoin i.p.), read-out: brain EC50): 44 µM | minimal plasma concentration provoking behavioral signs (BSC) (Sprague Dawley rats): 110 µM | concentration at 2 h ([2]; brain, 10 mg/kg, Study17131, 10 mg/kg, read-out: Mean [Brain]): 18.3 µM | concentration at 2 h ([2]; brain, 10 mg/kg, Study17134, 10 mg/kg, read-out: Mean [Brain]): 17.4 µM | concentration at 2 h ([2]; brain, 30 mg/kg, Study17131, 30 mg/kg, read-out: Mean [Brain]): 43.1 µM | concentration at 2 h ([2]; brain, 30 mg/kg, Study17134, 30 mg/kg, read-out: Mean [Brain]): 46 µM | concentration at 2 h ([2]; brain, 100 mg/kg, Study17131, 100 mg/kg, read-out: Mean [Brain]): 115 µM | concentration at 2 h ([2]; plasma, 10 mg/kg, Study17131, 10 mg/kg, read-out: Mean [Palsma]): 13.6 µM | concentration at 2 h ([2]; plasma, 10 mg/kg, Study17134, 10 mg/kg, read-out: Mean [Palsma]): 16.6 µM | concentration at 2 h ([2]; plasma, 30 mg/kg, Study17131, 30 mg/kg, read-out: Mean [Palsma]): 34.5 µM | concentration at 2 h ([2]; plasma, 30 mg/kg, Study17134, 30 mg/kg, read-out: Mean [Palsma]): 52.5 µM | concentration at 2 h ([2]; plasma, 100 mg/kg, Study17131, 100 mg/kg, read-out: Mean [Palsma]): 91.3 µM | concentration at 2 h ([3]; brain, 3 mg/kg, Study18058, 3 mg/kg, read-out: Mean [Brain]): 0.979 µM | concentration at 2 h ([3]; brain, 10 mg/kg, Study18058, 10 mg/kg, read-out: Mean [Brain]): 4.24 µM | concentration at 2 h ([3]; brain, 20 mg/kg, Study18058, 20 mg/kg, read-out: Mean [Brain]): 11 µM | concentration at 2 h ([3]; brain, 30 mg/kg, Study18068, 30 mg/kg, read-out: Mean [Brain]): 30.4 µM | concentration at 2 h ([3]; brain, 100 mg/kg, Study18068, 100 mg/kg, read-out: Mean [Brain]): 55.5 µM | concentration at 2 h ([3]; brain, 300 mg/kg, Study18085, 300 mg/kg, read-out: Mean [Brain]): 79.9 µM | concentration at 2 h ([3]; plasma, 3 mg/kg, Study18058, 3 mg/kg, read-out: Mean [Palsma]): 0.966 µM | concentration at 2 h ([3]; plasma, 10 mg/kg, Study18058, 10 mg/kg, read-out: Mean [Palsma]): 4.27 µM | concentration at 2 h ([3]; plasma, 20 mg/kg, Study18058, 20 mg/kg, read-out: Mean [Palsma]): 11.3 µM | concentration at 2 h ([3]; plasma, 30 mg/kg, Study18068, 30 mg/kg, read-out: Mean [Palsma]): 24 µM | concentration at 2 h ([3]; plasma, 100 mg/kg, Study18068, 100 mg/kg, read-out: Mean [Palsma]): 42.7 µM | concentration at 2 h ([3]; plasma, 300 mg/kg, Study18085, 300 mg/kg, read-out: Mean [Palsma]): 65.9 µM
